Experiment: solid-form stability of Compound A (humidity, temperature, air)
Type: physicochemical

Compound	stability to air, moisture and elevated temperature (isolated as salt form (e.g., HCl salt) or monohydrate form)	relative humidity at which the monohydrate crystalline solid reversibly dehydrates (monohydrate crystalline solid isolated in Example 8) [% RH]	temperature up to which the monohydrate form is stable and robust (monohydrate form, solid)
COCCOc1cnc2ccn([C@H](C)c3nnc4c(F)cc(-c5cnn(C)c5)cn34)c(=O)c2c1 [Compound A, (R)-6-(1-(8-fluoro-6-(1-methyl-1H-pyrazol-4-yl)-[1,2,4]triazolo[4,3-a]pyridin-3-yl)ethyl)-3-(2-methoxyethoxy)-1,6-naphthyridin-5(6H)-one]	stable to air, moisture, and elevated temperature	< 11	–
COCCOc1cnc2ccn([C@H](C)c3nnc4c(F)cc(-c5cnn(C)c5)cn34)c(=O)c2c1 [monohydrate form of Compound A]	–	–	up to 50 °C
